From BigSolDB 2.1

O=C1Nc2ccccc2C1=O
Settings | solubility (mole fraction)
in PEG-400, 298.15 K | 0.0985
in PEG-400, 308.15 K | 0.109
in PEG-400, 318.15 K | 0.121
in PEG-400, 328.15 K | 0.132
in PEG-400, 338.15 K | 0.145

in transcutol
Settings | solubility (mole fraction)
298.15 K | 0.52
308.15 K | 0.536
318.15 K | 0.557
328.15 K | 0.579
338.15 K | 0.594

CN1C(C(=O)Nc2ccccn2)=C(O)c2sc(Cl)cc2S1(=O)=O
298.15 K
Settings | solubility (mole fraction)
in ethanol | 1.3e-05
in water | 3e-06

C/C=C/C=C/C(=O)O
in n-propanol
Settings | solubility (mole fraction)
283.15 K | 0.0201
288.15 K | 0.0283
293.15 K | 0.0389
298.15 K | 0.0519
303.15 K | 0.0677
308.15 K | 0.0851
313.15 K | 0.0938
318.15 K | 0.129
323.15 K | 0.151
